Laboratory results published in article PMC4358979, “Structure-Based Virtual Screening and Discovery of New PPARδ/γ Dual Agonist and PPARδ and γ Agonists” (PLoS ONE, 2015).

Biological target: T1, PPARδ (Homo sapiens, UniProt Q03181)
T1 construct: gene PPARD; pcDNA3-PPARδ expressed in HeLa cells
T1 sequence (Q03181 1-441): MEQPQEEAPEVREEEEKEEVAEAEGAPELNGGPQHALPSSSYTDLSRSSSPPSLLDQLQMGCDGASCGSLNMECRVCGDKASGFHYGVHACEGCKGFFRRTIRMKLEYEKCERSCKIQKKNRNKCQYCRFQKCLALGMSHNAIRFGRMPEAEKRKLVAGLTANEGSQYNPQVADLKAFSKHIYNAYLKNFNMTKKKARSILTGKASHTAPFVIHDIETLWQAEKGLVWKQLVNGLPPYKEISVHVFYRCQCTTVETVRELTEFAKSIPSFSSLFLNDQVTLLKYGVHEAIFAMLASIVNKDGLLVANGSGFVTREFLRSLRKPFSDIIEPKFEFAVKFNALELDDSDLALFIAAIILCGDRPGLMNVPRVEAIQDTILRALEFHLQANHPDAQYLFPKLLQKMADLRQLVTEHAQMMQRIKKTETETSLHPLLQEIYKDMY
Experiment: PPRE-luciferase transactivation assay in HeLa cells, single concentration ([…])
Type: cell-based
Details: read-out: PPRE-luciferase transactivation assay in HeLa cells, single concentration (10 μM)

Cc1ccc(Cn2c(=N)n(CC(=O)O)c3ccccc32)cc1 [compound 5, [2-imino-3-(4-methylbenzyl)-2,3-dihydro-1H-benzimidazol-1-yl]acetic acid]
fold induction at 10 µM: 6.4
